Several values for one entry are separate records, joined by “and”; a condition that tells them apart may be missing. Equal values may be shown once.
Columns and labels:
[1] = test system: back skin of Rhino mice; details: Rhino (RHJ/LeJ), mouse, in vivo
[2] = test system: sebaceous lipids in sebum (fatty acid, squalene, cholesterol, wax esters, cholesteryl ester); set-up: species or system Rhino mice (RHJ/LeJ); details: mouse, in vivo
[3] = test system: dermis (inflammatory infiltrate); details: Rhino (RHJ/LeJ), mouse, in vivo
[4] = test system: IL-1 alpha; set-up: species or system Rhino mice (RHJ/LeJ); details: mouse, in vivo
[5] = test system: sebaceous glands; set-up: species or system Rhino mice (RHJ/LeJ); details: mouse, in vivo
[6] = test system: fibroblasts; set-up: species or system Rhino mice (RHJ/LeJ); details: mouse, in vivo
[7] = test system: utriculi; set-up: species or system Rhino mice (RHJ/LeJ); details: mouse, in vivo
[8] = test system: dorsal skin; details: Rhino (RHJ/LeJ), mouse, in vivo
[9] = test system: Substance P; set-up: species or system Rhino mice (RHJ/LeJ); details: mouse, in vivo
[10] = test system: sebocytes; set-up: species or system Rhino mice (RHJ/LeJ); details: mouse, in vivo
[11] = test system: keratinocytes; set-up: species or system Rhino mice (RHJ/LeJ); details: mouse, in vivo
[12] = test system: epidermis (back skin); details: Rhino (RHJ/LeJ), mouse, in vivo

SMILES: COc1ccc(-c2ccc3cc(C(=O)O)ccc3c2)cc1C12CC3CC(CC(C3)C1)C2 [Adapalene]
- Erythema mean score on dorsal skin [1]: 0.3-1.1
- Scaling mean score on dorsal skin [1]: 0.5-1.3
- Induction of increased excretion of fatty acid to the epidermis [2]: did not
- Increase of inflammation of the dermis [3]: +23%
- Decrease of IL-1 alpha level versus vehicle [4]: 96%
- IL-1 alpha Concentration [4]: 50.4 ng/g tissue and 40.3 ng/g tissue and 45.1 ng/g tissue and 47.8 ng/g tissue and 69.3 ng/g tissue and 36.4 ng/g tissue
- IL-1 alpha level in back skin (mean±SD) [4]: 47.7±11.5 ng/g tissue
- Increase of sebaceous glands surface versus vehicle group [5]: +82%
- Increase of Ki67 positive cells in dermis (fibroblasts) [6]: 43%
- Ki67 positive cells per mm^2 [6]: 1229.8 cells per mm^2 and 1499.9 cells per mm^2 and 2072.0 cells per mm^2 and 1218.1 cells per mm^2 and 1088.8 cells per mm^2 and 1181.9 cells per mm^2
- Decrease in the surface area of the utriculi [7]: 94%
- utriculi surface [7]: 515.3 μm^2 and 545.4 μm^2 and 585.7 μm^2 and 515.2 μm^2 and 806.1 μm^2 and 527.4 μm^2 and 605.0 μm^2
- Thickening of the dorsal skin as compared to the vehicle group [8]: +14%
- Substance P concentration in back skin [9]: 335.5 pg/g tissue and 414.1 pg/g tissue and 453.4 pg/g tissue and 409.8 pg/g tissue and 403.9 pg/g tissue and 491.3 pg/g tissue
- Ki67 positive cells per mm^2 [10]: 3722.1 cells per mm^2 and 4331.9 cells per mm^2 and 3916.9 cells per mm^2 and 3392.4 cells per mm^2 and 4299.5 cells per mm^2 and 2928.2 cells per mm^2
- Increase of Ki67 positive cells in epidermis (keratinocytes) [11]: 30%
- Ki67 positive cells per mm^2 [11]: 4411.7 cells per mm^2 and 4260.9 cells per mm^2 and 4248.9 cells per mm^2 and 3981.7 cells per mm^2 and 4121.7 cells per mm^2 and 4733.8 cells per mm^2
- Increase in epidermis thickness (hyperplasia) [12]: +188%
